According to ChEMBL document CHEMBL3988442, “University of Dundee, Small-Polar-MMV Screening Library” (2021):

Biological target: Tryptophan--tRNA ligase (Mycobacterium tuberculosis (strain ATCC 25618 / H37Rv), UniProt P9WFT3)
Assay: Biochemical assay for Mt-TrpRS
Type: functional

Tryptophan--tRNA ligase, sequence (P9WFT3 whole entry): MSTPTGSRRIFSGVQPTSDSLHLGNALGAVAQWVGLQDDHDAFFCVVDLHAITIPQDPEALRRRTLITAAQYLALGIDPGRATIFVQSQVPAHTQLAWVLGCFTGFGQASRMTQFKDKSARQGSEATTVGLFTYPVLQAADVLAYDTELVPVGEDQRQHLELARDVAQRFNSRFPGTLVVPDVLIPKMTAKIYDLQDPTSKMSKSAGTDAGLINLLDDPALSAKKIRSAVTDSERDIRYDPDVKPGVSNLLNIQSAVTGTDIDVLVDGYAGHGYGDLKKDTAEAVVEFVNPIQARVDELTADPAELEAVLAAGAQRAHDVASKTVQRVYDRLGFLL

Row | SMILES | IC50 [µM]
1 | CNC(=O)C1(C)CN(c2nc(C)cc(C)n2)CCO1 (centres undefined) | > 195
2 | CNC(=O)c1cnn2c(C3CCCN3C)ccnc12 (centres undefined) | > 195
3 | O=C(NCCc1ccccc1)C1CCN(C(=O)Cn2cncn2)C1 (centres undefined) | > 195
4 | Cc1c[nH]nc1C1CCN(C(=O)C2CCC2)CC1 | > 195
5 | COc1cccc(S(=O)(=O)N2C[C@@H](O)[C@H](N(C)C)C2)c1 | > 195
6 | Nc1nccc(C2CCN(CC3CC3)C2)n1 (centres undefined) | > 195
7 | Cn1nccc1CN1CCCC(COc2ccccc2F)C1 (centres undefined) | > 195
8 | O=C(NCc1ccccn1)c1cncc(C2CCCN2)n1 (centres undefined) | > 195
9 | Cc1nccc(N2CCCC2CCNS(C)(=O)=O)n1 (centres undefined) | > 195
10 | O=C(c1ccc(=O)[nH]n1)N1CCNCC1c1ccccc1 (centres undefined) | > 195
11 | Oc1cc(CC2COCCN(CC3(O)CCOCC3)C2)ncn1 (centres undefined) | > 195
12 | COCCNc1nnc(-c2ccccn2)s1 | > 195
13 | CCc1n[nH]c(C(=O)NCCn2ccc(C)n2)c1C | > 195
14 | O=C(NCc1ccccn1)c1cnc(C2CCCN2)cn1 (centres undefined) | > 195
15 | Cc1nc(C(=O)NCc2ccccn2)cc(C2CCCN2)n1 (centres undefined) | > 195
16 | CCCC(=O)N1CCCC(c2ccccn2)C1 (centres undefined) | > 195
17 | COc1cccc(CNCc2cccnc2)c1 | > 195
18 | O=C(Cc1cccc(O)c1)N1CCCC(O)(CN2CCOCC2)CC1 (centres undefined) | > 195
19 | O=C(Cc1cccc(O)c1)N1CCCC(O)(CN2CCCC2)CC1 (centres undefined) | > 195
20 | OCCN1CCCCC1c1cc[nH]n1 (centres undefined) | > 195
21 | CC(C)C(=O)N1CCC(C)(c2cc(O)[nH]n2)CC1 | > 195
22 | O=C(NC[C@H]1CC[C@H](c2nnc(-c3cccnc3)o2)CC1)C1CC1 | > 195
23 | Cc1c[nH]nc1C1CCN(C(=O)C2CCCC2)C1 (centres undefined) | > 195
24 | c1cc(-c2cnc(C3CCNCC3)cn2)n[nH]1 | > 195

Row | SMILES | IC50 [µM]
25 | Nc1nccnc1C1CN(Cc2ccc(OCC(=O)O)cc2)CCO1 (centres undefined) | > 195
26 | O=C(c1cc2c(s1)CCC2)N1CCCC(c2cnccn2)C1 (centres undefined) | > 195
27 | NC(=O)C1(Cc2ccc(-c3ccccc3)cc2)CCNC1 (centres undefined) | > 195
28 | Cc1cnc(N2CCOC(C(=O)NCc3ccccc3)C2)s1 (centres undefined) | > 195
29 | NC(=O)CN1CCC(c2cccc(Oc3ccccc3)n2)CC1 | > 195
30 | Nc1nccc(C2CCN(CCO)C2)n1 (centres undefined) | > 195
31 | CN(C)c1nccc(C2CCN(C3CCCCC3O)CC2)n1 (centres undefined) | > 195
32 | Cc1cnc(N)c(C(=O)C2CCN(C(=O)C3CCC3)CC2)c1 | > 195
33 | Cc1cnc(N)c(C(=O)C2CCN(C(=O)c3cnc(C)cn3)CC2)c1 | > 195
34 | Cc1nc(C2CCCN2C(=O)COc2ccccc2)ncc1C(N)=O (centres undefined) | > 195
35 | COc1ccc(C2Nc3cc(Cl)ccc3C3=NCCN32)cc1O (centres undefined) | > 195
36 | COCC(=O)N1CCCCC1c1nccc(C)n1 (centres undefined) | > 195
37 | CC(=O)N1CCCC(c2ccccn2)C1 (centres undefined) | > 195
38 | Cc1ccc(S(=O)(=O)N2C[C@H]3C[C@H](NC(=O)c4cc[nH]n4)[C@H]3C2)cc1 | > 195
39 | O=C(c1cccnn1)N1C[C@@H]2CC[C@H](Oc3cccc(F)c3)[C@@H]2C1 | > 195
40 | Cc1cc(N)cc(C2CN(Cc3cc[nH]n3)CCO2)n1 (centres undefined) | > 195
41 | NCc1cnn(-c2ccccc2C(=O)NCCc2ccccn2)c1 | > 195
42 | O=C1CO[C@H]2CN(Cc3ccccc3Br)C[C@@H]2N1 | > 195
43 | COCCNC(=O)c1ccccc1-n1cc(CN)cn1 | > 195
44 | Cn1cc(CN2CC[C@H](O)[C@@H](n3ccc(=O)[nH]c3=O)CC2)cn1 | > 195
45 | CN(CC1(O)CCN(c2ccccn2)C1)C(=O)Cc1ccsc1 (centres undefined) | > 195
46 | Cc1nc(C2CCCN2C(=O)CC2CCCC2)ncc1C(N)=O (centres undefined) | > 195
47 | CC(=O)N1CCC(Cc2cnc(C(=O)N3CCCC3)cn2)C1 (centres undefined) | > 195
48 | Cc1c[nH]nc1C1CCN(S(=O)(=O)N(C)C)C1 (centres undefined) | > 195

Row | SMILES | IC50 [µM]
49 | O=C(c1cnco1)N1C[C@@H](O)[C@H](Oc2cccc(F)c2)C1 | > 195
50 | CNCC(=O)N1CCCCC1c1nccc(C)n1 (centres undefined) | > 195
51 | NC(=O)CN1CCOCC(Cc2ccccc2)C1 (centres undefined) | > 195
52 | CC(=O)N1CCCC(c2ccc(C(N)=O)cn2)C1 (centres undefined) | > 195
53 | Cc1ncsc1CN1CCN(C2CCOCC2)CC(C(N)=O)C1 (centres undefined) | > 195
54 | CNc1cc(C2CCCN2Cc2ccc(OCC(=O)O)cc2)ccn1 (centres undefined) | > 195
55 | COCCN1CCC(c2cncc(N(C)C)n2)CC1 | > 195
56 | O=C(c1cccnc1)N1CCC(c2nc(O)cc(-c3ccncc3)n2)C1 (centres undefined) | > 195
57 | O=C(c1ccccn1)N1CCC(c2nc(O)cc(-c3ccncc3)n2)C1 (centres undefined) | > 195
58 | CN1CCC(Cc2cc(Nc3ccccn3)ncn2)CC1 | > 195
59 | C[C@]1(O)CN(CCC(N)=O)CC[C@@H]1Oc1cccc(F)c1 | > 195
60 | CC(=O)N1CCCC(Cc2nccn2C)C1 (centres undefined) | > 195
61 | Cn1nccc1CCC(=O)N1CCCC(Cc2cccnc2)C1 (centres undefined) | > 195
62 | Cc1cccc(C2CCCN2S(=O)(=O)N(C)C)n1 (centres undefined) | > 195
63 | CCn1cc(C(=O)N2CCCC(c3nccs3)C2)cn1 (centres undefined) | > 195
64 | O=C1CCCN1CCCC(=O)N1CCCC(Cc2cccnc2)C1 (centres undefined) | > 195
65 | COCc1cc(O)nc(C2CCCN(Cc3cccc(Cl)c3Cl)C2)n1 (centres undefined) | > 195
66 | OC1CCN(Cc2c(-c3ccco3)[nH]c3ncccc23)CC1 | > 195
67 | O=C(C1CCCCC1)N1CCC(c2n[nH]c3nccnc23)CC1 | > 195
68 | O=C(C1CCCC1)N1CCC(c2n[nH]c3nccnc23)CC1 | > 195
69 | CC(=O)NC[C@]1(O)CCN(C(=O)c2ccc(F)c(Cl)c2)C[C@H]1O | > 195
70 | O=C(N[C@@H]1CN(Cc2ccc3[nH]ccc3c2)C[C@H]1O)c1cscn1 | > 195
71 | CC(=O)N1CCCC(c2cccc(-n3ccnc3)n2)C1 (centres undefined) | > 195
72 | c1cnc(N2CCCC(c3n[nH]c4ncccc34)C2)nc1 (centres undefined) | > 195

Row | SMILES | IC50 [µM]
73 | c1cnc(N2CCC(c3n[nH]c4ncccc34)C2)nc1 (centres undefined) | > 195
74 | CN(CCC(=O)N1CCCC(Cc2cccnc2)C1)Cc1cccnc1 (centres undefined) | > 195
75 | COc1ccc(CN2C[C@@H](O)[C@](O)(CNC(=O)c3ccccn3)C2)cc1 | > 195
76 | Cc1nccn1CC1CCCN(C(=O)c2cnn(C)c2)C1 (centres undefined) | > 195
77 | Cc1cc(CN2CC[C@@H]3O[C@@H](c4nnc(C)o4)C[C@H]3C2)no1 | > 195
78 | COc1ccc(-c2cc(C3CCCNC3)ccn2)cc1 (centres undefined) | > 195
79 | Cc1cnccc1-c1cnn(CCNC(=O)c2ccncc2)c1C1CC1 | > 195
80 | CNC(=O)c1cc(C2CCCNC2)n[nH]1 (centres undefined) | > 195
81 | NCC(=O)N1CCCC1c1n[nH]cc1-c1ccccc1F (centres undefined) | > 195
82 | C[C@H](N)Cn1nc(-c2cccs2)oc1=O | > 195
83 | O=C(CCC1CCCC1)N1CCCC(c2ncc3c(n2)CCNC3)C1 (centres undefined) | > 195
84 | Cc1nc(C2(O)CCCNCC2)sc1CCOc1ccc(F)cc1 (centres undefined) | > 195
85 | CNC(=O)C1(CCCc2ccncc2)CCCCN1 (centres undefined) | > 195
86 | Cc1cc(C)nc(C2CCCNC2)n1 (centres undefined) | > 195
87 | Cc1cc(N(C)C)nc(C2CCNC2)n1 (centres undefined) | > 195
88 | CNC(=O)COC1COC2(CCN(Cc3cccnc3)CC2)C1 (centres undefined) | > 195
89 | CN1CC[C@@H]2OC[C@H](C(=O)N(C)Cc3ccccn3)C[C@@H]2C1 | > 195
90 | OC1CCCN(Cc2ccnc(-c3cccnc3)n2)C1 (centres undefined) | > 195
91 | CC(C)c1ncc(CN2CCC(CO)C2)cn1 (centres undefined) | > 195
92 | Cc1cc(C[C@@H]2COC[C@H]2NCc2ccc(Cl)c(Cl)c2)on1 | > 195
93 | Cc1cc(C[C@@H]2CCC[C@H]2NCc2ccccc2F)on1 | > 195
94 | Cc1nc(O)cc(C2CCN(Cc3ccc(F)c(F)c3)C2)n1 (centres undefined) | > 195
